Results taken from the NIST ThermoML archive (doi:10.1021/je400250u).
± gives the expanded uncertainty stated by the source.

Key:
[1] = refractive index (Na D-line) (dimensionless); xn = mol fraction of the nth substance listed; settings: 100 kPa, Liquid, Standard Abbe refractometry
[2] = xn = mol fraction of the nth substance listed; settings: 100 kPa, Liquid; for viscosity: Capillary tube (Ostwald / Ubbelohde) method; for mass density: Vibrating tube method

## C1CC[C@H]2CCCC[C@H]2C1 [cis-decahydronaphthalene] + CCCCCCCCCCC
[1]; 298.15 K, x1 = 0.1086
  refractive index: 1.4192 ± 0.0013
[1]; 298.15 K, x1 = 0.2072
  refractive index: 1.4242 ± 0.0013
[1]; 298.15 K, x1 = 0.3066
  refractive index: 1.4294 ± 0.0013
[1]; 298.15 K, x1 = 0.4075
  refractive index: 1.4352 ± 0.0013
[1]; 298.15 K, x1 = 0.5059
  refractive index: 1.4411 ± 0.0013
[1]; 298.15 K, x1 = 0.592
  refractive index: 1.4469 ± 0.0013
[1]; 298.15 K, x1 = 0.6835
  refractive index: 1.4532 ± 0.0013
[1]; 298.15 K, x1 = 0.7983
  refractive index: 1.4609 ± 0.0013
[1]; 298.15 K, x1 = 0.8954
  refractive index: 1.4686 ± 0.0013
[1]; 298.15 K, x1 = 1
  refractive index: 1.4776 ± 0.0013
[1]; 308.15 K, x1 = 0.1086
  refractive index: 1.4151 ± 0.0013
[1]; 308.15 K, x1 = 0.2072
  refractive index: 1.4198 ± 0.0013
[1]; 308.15 K, x1 = 0.3066
  refractive index: 1.4251 ± 0.0013
[1]; 308.15 K, x1 = 0.4075
  refractive index: 1.431 ± 0.0013
[1]; 308.15 K, x1 = 0.5059
  refractive index: 1.4366 ± 0.0013
[1]; 308.15 K, x1 = 0.592
  refractive index: 1.4426 ± 0.0013
[1]; 308.15 K, x1 = 0.6835
  refractive index: 1.4487 ± 0.0013
[1]; 308.15 K, x1 = 0.7983
  refractive index: 1.4565 ± 0.0013
[1]; 308.15 K, x1 = 0.8954
  refractive index: 1.464 ± 0.0013
[1]; 308.15 K, x1 = 1
  refractive index: 1.4736 ± 0.0013
[1]; 318.15 K, x1 = 0.1086
  refractive index: 1.4114 ± 0.0013
[1]; 318.15 K, x1 = 0.2072
  refractive index: 1.416 ± 0.0013
[1]; 318.15 K, x1 = 0.3066
  refractive index: 1.4213 ± 0.0013
[1]; 318.15 K, x1 = 0.4075
  refractive index: 1.4275 ± 0.0013
[1]; 318.15 K, x1 = 0.5059
  refractive index: 1.4331 ± 0.0013
[1]; 318.15 K, x1 = 0.592
  refractive index: 1.4383 ± 0.0013
[1]; 318.15 K, x1 = 0.6835
  refractive index: 1.4448 ± 0.0013
[1]; 318.15 K, x1 = 0.7983
  refractive index: 1.4536 ± 0.0013
[1]; 318.15 K, x1 = 0.8954
  refractive index: 1.4612 ± 0.0013
[1]; 318.15 K, x1 = 1
  refractive index: 1.4696 ± 0.0013
[2]; 293.15 K, x1 = 0.1086
  viscosity: 1.24 ± 0.015 mPa·s
  mass density: 753.22 ± 0.33 kg/m3
[2]; 293.15 K, x1 = 0.2072
  viscosity: 1.31 ± 0.015 mPa·s
  mass density: 765.62 ± 0.34 kg/m3
[2]; 293.15 K, x1 = 0.3066
  viscosity: 1.415 ± 0.016 mPa·s
  mass density: 778.83 ± 0.35 kg/m3
[2]; 293.15 K, x1 = 0.4031
  viscosity: 1.542 ± 0.017 mPa·s
  mass density: 792.39 ± 0.37 kg/m3
[2]; 293.15 K, x1 = 0.5028
  viscosity: 1.69 ± 0.018 mPa·s
  mass density: 807.23 ± 0.38 kg/m3
[2]; 293.15 K, x1 = 0.5976
  viscosity: 1.829 ± 0.019 mPa·s
  mass density: 822.17 ± 0.4 kg/m3
[2]; 293.15 K, x1 = 0.6835
  viscosity: 2.021 ± 0.021 mPa·s
  mass density: 836.42 ± 0.41 kg/m3
[2]; 293.15 K, x1 = 0.7983
  viscosity: 2.368 ± 0.024 mPa·s
  mass density: 856.82 ± 0.44 kg/m3
[2]; 293.15 K, x1 = 0.8954
  viscosity: 2.726 ± 0.027 mPa·s
  mass density: 875.37 ± 0.46 kg/m3
[2]; 293.15 K, x1 = 1
  viscosity: 3.355 ± 0.033 mPa·s
  mass density: 896.85 ± 0.48 kg/m3
[2]; 298.15 K, x1 = 0.1086
  viscosity: 1.148 ± 0.014 mPa·s
  mass density: 749.55 ± 0.33 kg/m3
[2]; 298.15 K, x1 = 0.2072
  viscosity: 1.208 ± 0.015 mPa·s
  mass density: 761.95 ± 0.34 kg/m3
[2]; 298.15 K, x1 = 0.3066
  viscosity: 1.3 ± 0.015 mPa·s
  mass density: 775.16 ± 0.35 kg/m3
[2]; 298.15 K, x1 = 0.4031
  viscosity: 1.415 ± 0.016 mPa·s
  mass density: 788.74 ± 0.37 kg/m3
[2]; 298.15 K, x1 = 0.5028
  viscosity: 1.554 ± 0.017 mPa·s
  mass density: 803.55 ± 0.38 kg/m3
[2]; 298.15 K, x1 = 0.5976
  viscosity: 1.67 ± 0.018 mPa·s
  mass density: 818.48 ± 0.4 kg/m3
[2]; 298.15 K, x1 = 0.6835
  viscosity: 1.84 ± 0.02 mPa·s
  mass density: 832.71 ± 0.41 kg/m3
[2]; 298.15 K, x1 = 0.7983
  viscosity: 2.139 ± 0.022 mPa·s
  mass density: 853.1 ± 0.43 kg/m3
[2]; 298.15 K, x1 = 0.8954
  viscosity: 2.458 ± 0.025 mPa·s
  mass density: 871.62 ± 0.46 kg/m3
[2]; 298.15 K, x1 = 1
  viscosity: 3.011 ± 0.03 mPa·s
  mass density: 893.06 ± 0.48 kg/m3
[2]; 303.15 K, x1 = 0.1086
  viscosity: 1.062 ± 0.014 mPa·s
  mass density: 745.85 ± 0.33 kg/m3
[2]; 303.15 K, x1 = 0.2072
  viscosity: 1.112 ± 0.014 mPa·s
  mass density: 758.26 ± 0.34 kg/m3
[2]; 303.15 K, x1 = 0.3066
  viscosity: 1.201 ± 0.015 mPa·s
  mass density: 771.47 ± 0.35 kg/m3
[2]; 303.15 K, x1 = 0.4031
  viscosity: 1.326 ± 0.016 mPa·s
  mass density: 785.05 ± 0.36 kg/m3
[2]; 303.15 K, x1 = 0.5028
  viscosity: 1.424 ± 0.016 mPa·s
  mass density: 799.85 ± 0.38 kg/m3
[2]; 303.15 K, x1 = 0.5976
  viscosity: 1.53 ± 0.017 mPa·s
  mass density: 814.77 ± 0.39 kg/m3
[2]; 303.15 K, x1 = 0.6835
  viscosity: 1.682 ± 0.018 mPa·s
  mass density: 828.99 ± 0.41 kg/m3
[2]; 303.15 K, x1 = 0.7983
  viscosity: 1.949 ± 0.021 mPa·s
  mass density: 849.36 ± 0.43 kg/m3
[2]; 303.15 K, x1 = 0.8954
  viscosity: 2.233 ± 0.023 mPa·s
  mass density: 867.86 ± 0.46 kg/m3
[2]; 303.15 K, x1 = 1
  viscosity: 2.718 ± 0.028 mPa·s
  mass density: 889.26 ± 0.48 kg/m3
[2]; 308.15 K, x1 = 0.1086
  viscosity: 0.977 ± 0.013 mPa·s
  mass density: 742.15 ± 0.33 kg/m3
[2]; 308.15 K, x1 = 0.2072
  viscosity: 1.034 ± 0.014 mPa·s
  mass density: 754.56 ± 0.34 kg/m3
[2]; 308.15 K, x1 = 0.3066
  viscosity: 1.111 ± 0.014 mPa·s
  mass density: 767.77 ± 0.35 kg/m3
[2]; 308.15 K, x1 = 0.4031
  viscosity: 1.215 ± 0.015 mPa·s
  mass density: 781.35 ± 0.36 kg/m3
[2]; 308.15 K, x1 = 0.5028
  viscosity: 1.307 ± 0.016 mPa·s
  mass density: 796.14 ± 0.38 kg/m3
[2]; 308.15 K, x1 = 0.5976
  viscosity: 1.41 ± 0.016 mPa·s
  mass density: 811.05 ± 0.39 kg/m3
[2]; 308.15 K, x1 = 0.6835
  viscosity: 1.546 ± 0.017 mPa·s
  mass density: 825.27 ± 0.41 kg/m3
[2]; 308.15 K, x1 = 0.7983
  viscosity: 1.818 ± 0.02 mPa·s
  mass density: 845.62 ± 0.43 kg/m3
[2]; 308.15 K, x1 = 0.8954
  viscosity: 2.035 ± 0.022 mPa·s
  mass density: 864.1 ± 0.45 kg/m3
[2]; 308.15 K, x1 = 1
  viscosity: 2.47 ± 0.026 mPa·s
  mass density: 885.46 ± 0.48 kg/m3
[2]; 313.15 K, x1 = 0.1086
  viscosity: 0.903 ± 0.013 mPa·s
  mass density: 738.44 ± 0.33 kg/m3
[2]; 313.15 K, x1 = 0.2072
  viscosity: 0.962 ± 0.013 mPa·s
  mass density: 750.84 ± 0.34 kg/m3
[2]; 313.15 K, x1 = 0.3066
  viscosity: 1.034 ± 0.014 mPa·s
  mass density: 764.05 ± 0.35 kg/m3
[2]; 313.15 K, x1 = 0.4031
  viscosity: 1.115 ± 0.014 mPa·s
  mass density: 777.64 ± 0.36 kg/m3
[2]; 313.15 K, x1 = 0.5028
  viscosity: 1.204 ± 0.015 mPa·s
  mass density: 792.42 ± 0.38 kg/m3
[2]; 313.15 K, x1 = 0.5976
  viscosity: 1.303 ± 0.016 mPa·s
  mass density: 807.33 ± 0.39 kg/m3
[2]; 313.15 K, x1 = 0.6835
  viscosity: 1.426 ± 0.017 mPa·s
  mass density: 821.53 ± 0.41 kg/m3
[2]; 313.15 K, x1 = 0.7983
  viscosity: 1.673 ± 0.019 mPa·s
  mass density: 841.87 ± 0.43 kg/m3
[2]; 313.15 K, x1 = 0.8954
  viscosity: 1.859 ± 0.02 mPa·s
  mass density: 860.33 ± 0.45 kg/m3
[2]; 313.15 K, x1 = 1
  viscosity: 2.252 ± 0.024 mPa·s
  mass density: 881.65 ± 0.48 kg/m3
[2]; 318.15 K, x1 = 0.1086
  viscosity: 0.843 ± 0.012 mPa·s
  mass density: 734.71 ± 0.33 kg/m3
[2]; 318.15 K, x1 = 0.2072
  viscosity: 0.899 ± 0.013 mPa·s
  mass density: 747.12 ± 0.34 kg/m3
[2]; 318.15 K, x1 = 0.3066
  viscosity: 0.964 ± 0.013 mPa·s
  mass density: 760.33 ± 0.35 kg/m3
[2]; 318.15 K, x1 = 0.4031
  viscosity: 1.038 ± 0.014 mPa·s
  mass density: 773.91 ± 0.36 kg/m3
[2]; 318.15 K, x1 = 0.5028
  viscosity: 1.119 ± 0.014 mPa·s
  mass density: 788.7 ± 0.38 kg/m3
[2]; 318.15 K, x1 = 0.5976
  viscosity: 1.209 ± 0.015 mPa·s
  mass density: 803.6 ± 0.39 kg/m3
[2]; 318.15 K, x1 = 0.6835
  viscosity: 1.319 ± 0.016 mPa·s
  mass density: 817.79 ± 0.41 kg/m3
[2]; 318.15 K, x1 = 0.7983
  viscosity: 1.505 ± 0.017 mPa·s
  mass density: 838.11 ± 0.43 kg/m3
[2]; 318.15 K, x1 = 0.8954
  viscosity: 1.71 ± 0.019 mPa·s
  mass density: 856.55 ± 0.45 kg/m3
[2]; 318.15 K, x1 = 1
  viscosity: 2.063 ± 0.022 mPa·s
  mass density: 877.85 ± 0.47 kg/m3
[2]; 323.15 K, x1 = 0.1086
  viscosity: 0.786 ± 0.012 mPa·s
  mass density: 730.98 ± 0.33 kg/m3
[2]; 323.15 K, x1 = 0.2072
  viscosity: 0.841 ± 0.013 mPa·s
  mass density: 743.39 ± 0.34 kg/m3
[2]; 323.15 K, x1 = 0.3066
  viscosity: 0.9 ± 0.013 mPa·s
  mass density: 756.6 ± 0.35 kg/m3
[2]; 323.15 K, x1 = 0.4031
  viscosity: 0.97 ± 0.013 mPa·s
  mass density: 770.18 ± 0.36 kg/m3
[2]; 323.15 K, x1 = 0.5028
  viscosity: 1.043 ± 0.014 mPa·s
  mass density: 784.96 ± 0.38 kg/m3
[2]; 323.15 K, x1 = 0.5976
  viscosity: 1.124 ± 0.014 mPa·s
  mass density: 799.86 ± 0.39 kg/m3
[2]; 323.15 K, x1 = 0.6835
  viscosity: 1.225 ± 0.015 mPa·s
  mass density: 814.05 ± 0.41 kg/m3
[2]; 323.15 K, x1 = 0.7983
  viscosity: 1.392 ± 0.017 mPa·s
  mass density: 834.35 ± 0.43 kg/m3
[2]; 323.15 K, x1 = 0.8954
  viscosity: 1.577 ± 0.018 mPa·s
  mass density: 852.77 ± 0.45 kg/m3
[2]; 323.15 K, x1 = 1
  viscosity: 1.898 ± 0.021 mPa·s
  mass density: 874.05 ± 0.47 kg/m3
